Results as given in ChEMBL document CHEMBL1136964, “Nicotinic agonist binding site mapped by methionine- and tyrosine-scanning coupled with azidochloropyridinyl photoaffinity labeling” (J Med Chem, 2009).

Experiments:
Assay type in all cases: cell-based
[1] = system: HEK293S; assay: Binding affinity to Aplysia californica AchBP Y195F mutant expressed in HEK293S cells assessed as specific photoincorporation at 46 pmol by scintillation counting
[2] = Binding affinity to Aplysia californica AchBP S114M, M116L, Y195F mutant expressed in HEK293S cells by scintillation proximity assay
[3] = system: HEK293S; assay: Binding affinity to Aplysia californica AchBP S114M, M116L, Y195F mutant expressed in HEK293S cells assessed as specific photoincorporation at 46 pmol by scintillation counting relative to wild type
[4] = system: HEK293S; assay: Binding affinity to Aplysia californica AchBP A107M, M116L, Y195F mutant expressed in HEK293S cells assessed as specific photoincorporation at 46 pmol by scintillation counting relative to wild type
[5] = system: HEK293S; assay: Binding affinity to Aplysia californica AchBP M116L,Y195F mutant expressed in HEK293S cells assessed as specific photoincorporation at 46 pmol by scintillation counting
[6] = system: HEK293S; assay: Binding affinity to Aplysia californica AchBP S114M, M116L, Y195F mutant expressed in HEK293S cells assessed as specific photoincorporation at 46 pmol by scintillation counting
[7] = system: HEK293S; assay: Binding affinity to Aplysia californica AchBP I118M, M116L, Y195F mutant expressed in HEK293S cells assessed as specific photoincorporation at 46 pmol by scintillation counting
[8] = Binding affinity to Aplysia californica AchBP M116L mutant expressed in HEK293S cells by scintillation proximity assay
[9] = Binding affinity to Aplysia californica AchBP I106M, M116L, Y195F mutant expressed in HEK293S cells by scintillation proximity assay
[10] = system: HEK293S; assay: Binding affinity to Aplysia californica AchBP S114M, M116L mutant expressed in HEK293S cells assessed as specific photoincorporation at 46 pmol by scintillation counting
[11] = system: HEK293S; assay: Binding affinity to Aplysia californica AchBP I106M, M116L, Y195F mutant expressed in HEK293S cells assessed as specific photoincorporation at 46 pmol by scintillation counting
[12] = system: HEK293S; assay: Binding affinity to Aplysia californica AchBP I106M, M116L, Y195F mutant expressed in HEK293S cells assessed as specific photoincorporation at 46 pmol by scintillation counting relative to wild type
[13] = system: HEK293S; assay: Binding affinity to Aplysia californica AchBP M116Y, Y195F mutant expressed in HEK293S cells assessed as specific photoincorporation at 46 pmol by scintillation counting relative to wild type
[14] = system: HEK293S; assay: Binding affinity to Aplysia californica AchBP I118M, M116L mutant expressed in HEK293S cells assessed as specific photoincorporation at 46 pmol by scintillation counting relative to wild type
[15] = system: HEK293S; assay: Binding affinity to Aplysia californica AchBP S114M, M116L mutant expressed in HEK293S cells assessed as specific photoincorporation at 46 pmol by scintillation counting relative to wild type
[16] = system: HEK293S; assay: Binding affinity to Aplysia californica AchBP A107M mutant expressed in HEK293S cells assessed as specific photoincorporation at 46 pmol by scintillation counting relative to wild type
[17] = Binding affinity to Aplysia californica AchBP A107M, M116L, Y195F mutant expressed in HEK293S cells by scintillation proximity assay
[18] = system: HEK293S; assay: Binding affinity to Aplysia californica AchBP I106M, M116L mutant expressed in HEK293S cells assessed as specific photoincorporation at 46 pmol by scintillation counting relative to wild type
[19] = system: HEK293S; assay: Binding affinity to Aplysia californica AchBP I106M, M116L mutant expressed in HEK293S cells assessed as specific photoincorporation at 46 pmol by scintillation counting
[20] = system: HEK293S; assay: Binding affinity to Aplysia californica AchBP M116L,Y195F mutant expressed in HEK293S cells assessed as specific photoincorporation at 46 pmol by scintillation counting relative to wild type
[21] = Binding affinity to Aplysia californica AchBP V108M, M116L mutant expressed in HEK293S cells by scintillation proximity assay
[22] = system: HEK293S; assay: Binding affinity to Aplysia californica AchBP M116L mutant expressed in HEK293S cells assessed as specific photoincorporation at 46 pmol by scintillation counting
[23] = Binding affinity to Aplysia californica AchBP A107M mutant expressed in HEK293S cells by scintillation proximity assay
[24] = system: HEK293S; assay: Binding affinity to Aplysia californica AchBP A107M, M116L mutant expressed in HEK293S cells assessed as specific photoincorporation at 46 pmol by scintillation counting
[25] = system: HEK293S; assay: Binding affinity to Aplysia californica AchBP A107M, M116L, Y195F mutant expressed in HEK293S cells assessed as specific photoincorporation at 46 pmol by scintillation counting
[26] = system: HEK293S; assay: Binding affinity to Aplysia californica AchBP A107M, M116L mutant expressed in HEK293S cells assessed as specific photoincorporation at 46 pmol by scintillation counting relative to wild type
[27] = Binding affinity to Aplysia californica AchBP M116L,Y195F mutant expressed in HEK293S cells by scintillation proximity assay
[28] = Binding affinity to Aplysia californica AchBP M116Y, Y195F mutant expressed in HEK293S cells by scintillation proximity assay
[29] = Binding affinity to Aplysia californica AchBP I118M, M116L, Y195F mutant expressed in HEK293S cells by scintillation proximity assay
[30] = system: HEK293S; assay: Binding affinity to Aplysia californica AchBP V108M mutant expressed in HEK293S cells assessed as specific photoincorporation at 46 pmol by scintillation counting
[31] = Binding affinity to Aplysia californica AchBP V108M, M116L, Y195F mutant expressed in HEK293S cells by scintillation proximity assay
[32] = system: HEK293S; assay: Binding affinity to Aplysia californica AchBP V108M, M116L mutant expressed in HEK293S cells assessed as specific photoincorporation at 46 pmol by scintillation counting
[33] = system: HEK293S; assay: Binding affinity to Aplysia californica AchBP V108M, M116L, Y195F mutant expressed in HEK293S cells assessed as specific photoincorporation at 46 pmol by scintillation counting relative to wild type
[34] = Binding affinity to Aplysia californica AchBP A107M, M116L mutant expressed in HEK293S cells by scintillation proximity assay
[35] = system: HEK293S; assay: Binding affinity to Aplysia californica AchBP M116Y mutant expressed in HEK293S cells assessed as specific photoincorporation at 46 pmol by scintillation counting relative to wild type
[36] = Binding affinity to Aplysia californica AchBP V108M mutant expressed in HEK293S cells by scintillation proximity assay
[37] = system: HEK293S; assay: Binding affinity to Aplysia californica AchBP A107M mutant expressed in HEK293S cells assessed as specific photoincorporation at 46 pmol by scintillation counting

SMILES: Clc1ccc(C2CC3CCC2N3)cn1 (racemic) [EPIBATIDINE]
- Activity [1]: 1%
- Kd [2]: 24 nM
- Activity [3]: 13%
- Activity [4]: 13%
- Activity [5]: 2%
- Activity [6]: 3.9%
- Activity [7]: 4.7%
- Kd [8]: 9 nM
- Kd [9]: 29 nM
- Activity [10]: 19%
- Activity [11]: 3.7%
- Activity [12]: 13%
- Activity [13]: 30%
- Activity [14]: 55%
- Activity [15]: 66%
- Activity [16]: 93%
- Kd [17]: 25 nM
- Activity [18]: 90%
- Activity [19]: 26%
- Activity [20]: 6.9%
- Kd [21]: 2.9 nM
- Activity [22]: 35%
- Kd [23]: 10 nM
- Activity [24]: 29%
- Activity [25]: 3.7%
- Activity [26]: 100%
- Kd [27]: 22 nM
- Kd [28]: 115 nM
- Kd [29]: 24 nM
- Activity [30]: 9.5%
- Kd [31]: 2.9 nM
- Activity [32]: 8.1%
- Activity [33]: 0%
- Kd [34]: 7.5 nM
- Activity [35]: 59%
- Kd [36]: 7.6 nM
- Activity [37]: 27%
